MIC data for 32 compounds are collected here from patent US9511073B2, “Aromatic amides and uses thereof” (TAXIS Pharmaceuticals, Inc., priority 2011, dated 2016).

The structures appear in SMILES notation. ≈ marks a conversion by molar mass, not a printed value.

This assay has as its system Staphylococcus aureus (Isolate ID ATCC 29213). Kind of assay: Bacterial assay: MIC by broth microdilution or agar dilution (CLSI), S. aureus ATCC 29213. Type of assay: cell-based. The following applies: Staphylococcus aureus, ATCC29213, read-out: S. aureus MIC (μg/mL) Activity Range, S. aureus (ATCC29213). As to the method:
Compounds are tested for antimicrobial activity by susceptibility testing in liquid or on solid media. Minimum inhibitory concentrations (MICs) for compounds against each strain are determined by the broth microdilution or agar dilution method according to the guidelines of the Clinical Laboratories and Standards Institute, formerly the National Committee for Clinical Laboratory Standards (Clinical Laboratories and Standards Institute. Methods for Dilution Antimicrobial Susceptibility Tests for Bacteria That Grow Aerobically; Approved Standard—Seventh Edition. Document M7-A7. CLSI, Wayne, Pa., 2006; Clinical Laboratories and Standards Institute). The bacterial strains tested include S. aureus (Staphylococcus aureus (Isolate ID ATCC 29213)) and an FtsZ mutant of this isolate (FtsZ-G196A Staphylococcus aureus (Isolate ID GG/190723/sa/1.2)). Compound MICs were determined to be in the following activity ranges “A” activity≦0.25 μg/mL; “B” activity>0.25 μg/mL-1.0 μg/mL; “C” activity>1.0 μg/mL-16 μg/mL; “D” activity>16 μg/mL and ND=not determined. The bracketed entries indicate entantiomer(s) and their activity.
On the technique in general: Broth dilution looks for growth in wells or tubes with falling amounts of substance.
For `CN(C)CCC(Oc1ccc(F)c(C(N)=O)c1F)c1nc(-c2ccc(C(F)(F)F)cc2)c(Br)o1` (centres unmarked) [Compound 98, 3-(1-(5-bromo-4-(4-(trifluoromethyl)phenyl)oxazol-2-yl)-3-(dimethylamino)propoxy)-2,6-difluorobenzamide], the MIC was in the range of 1 to 16 µg/mL (≈ 1.82 to 29.2 µM). `CCc1nc([C@@H](CO)Oc2ccc(F)c(C(N)=O)c2F)oc1Br` [Compound 275B, (R)-3-(1-(5-bromo-4-ethyloxazol-2-yl)-2-hydroxyethoxy)-2,6-difluorobenzamide]: the MIC is more than 16 µg/mL. As for `NC(=O)c1c(F)ccc(OC(CNC(=O)c2ccccn2)c2nc(-c3ccc(C(F)(F)F)cc3)co2)c1F` (centres unmarked) [Compound 294, N-(2-(3-carbamoyl-2,4-difluorophenoxy)-2-(4-(4-(trifluoromethyl)phenyl)oxazol-2-yl)ethyl)picolinamide], the figure is more than 16 µg/mL; as for `Cn1cnc(CNC(=O)OCC(Oc2ccc(F)c(C(N)=O)c2F)c2nc(-c3ccc(C(F)(F)F)cc3)c(Br)o2)c1` (centres unmarked) [Compound 203, 2-(5-bromo-4-(4-(trifluoromethyl)phenyl)oxazol-2-yl)-2-(3-carbamoyl-2,4-difluorophenoxy)ethyl ((1-methyl-1H-imidazol-4-yl)methyl)carbamate], 0.25 to 1 µg/mL (≈ 0.388 to 1.55 µM); as for `CN(Cc1ccccn1)C(=O)OCC(Oc1ccc(F)c(C(N)=O)c1F)c1nc(-c2ccc(C(F)(F)F)cc2)c(Br)o1` (centres unmarked) [Compound 191, 2-(5-bromo-4-(4-(trifluoromethyl)phenyl)oxazol-2-yl)-2-(3-carbamoyl-2,4-difluorophenoxy)ethyl methyl(pyridin-2-ylmethyl)carbamate], 1 to 16 µg/mL (≈ 1.53 to 24.4 µM). As for `COC(=O)c1ccc(-c2nc(C(CO)Oc3ccc(F)c(C(N)=O)c3F)oc2Br)cc1` (centres unmarked) [Compound 246, methyl 4-(5-bromo-2-(1-(3-carbamoyl-2,4-difluorophenoxy)-2-hydroxyethyl)oxazol-4-yl)benzoate], the MIC is 1 to 16 µg/mL (≈ 2.01 to 32.2 µM). With `NC(=O)c1c(F)ccc(OC(CO)c2nc(-c3ccccc3F)co2)c1F` (centres unmarked) [Compound 223, 2,6-difluoro-3-(1-(4-(2-fluorophenyl)oxazol-2-yl)-2-hydroxyethoxy)benzamide], the MIC was more than 16 µg/mL. As for `NC(=O)c1c(F)ccc(OC(COC(=O)NCc2cccc[n+]2[O-])c2nc(-c3ccc(C(F)(F)F)cc3)c(Br)o2)c1F` (centres unmarked) [Compound 173, 2-((((2-(5-bromo-4-(4-(trifluoromethyl)phenyl)oxazol-2-yl)-2-(3-carbamoyl-2,4-difluorophenoxy)ethoxy)carbonyl)amino)methyl)pyridine 1-oxide], the figure is 0.25 to 1 µg/mL (≈ 0.38 to 1.52 µM); as for `COc1ccc(-c2nc(C(CO)Oc3ccc(F)c(C(N)=O)c3F)oc2Br)cn1` (centres unmarked) [Compound 230, 3-(1-(5-bromo-4-(6-methoxypyridin-3-yl)oxazol-2-yl)-2-hydroxyethoxy)-2,6-difluorobenzamide], 1 to 16 µg/mL (≈ 2.13 to 34 µM). As to `CCCc1oc(C(C)Oc2ccc(F)c(C(N)=O)c2F)nc1-c1ccc(Cl)cc1` (centres unmarked) [Compound 19], the MIC was 0.25 to 1 µg/mL (≈ 0.594 to 2.38 µM).

As to `COc1ccc(-c2nc(C(CO)Oc3ccc(F)c(C(N)=O)c3F)oc2Br)c(F)c1` (centres unmarked) [Compound 234, 3-(1-(5-bromo-4-(2-fluoro-4-methoxyphenyl)oxazol-2-yl)-2-hydroxyethoxy)-2,6-difluorobenzamide], the MIC was in the range of 0.25 to 1 µg/mL (≈ 0.513 to 2.05 µM). With `NC(=O)c1c(F)ccc(OC(CCCO)c2nc(-c3ccc(C(F)(F)F)cc3)c(Br)o2)c1F` (centres unmarked) [Compound 90, 3-(1-(5-bromo-4-(4-(trifluoromethyl)phenyl)oxazol-2-yl)-4-hydroxybutoxy)-2,6-difluorobenzamide], the MIC is 0.25 to 1 µg/mL (≈ 0.467 to 1.87 µM).

Consider `CNc1ccc(-c2coc(C(CO)Oc3ccc(F)c(C(N)=O)c3F)n2)cn1` (centres unmarked) [Compound 220, 2,6-difluoro-3-(2-hydroxy-1-(4-(6-(methylamino)pyridin-3-yl)oxazol-2-yl)ethoxy)benzamide], for which the MIC is more than 16 µg/mL. `NCC(Oc1ccc(F)c(C(N)=O)c1F)c1nc(-c2ccc(C(F)(F)F)cc2)c(Br)o1` (centres unmarked) [Compound 290, 3-(2-amino-1-(5-bromo-4-(4-(trifluoromethyl)phenyl)oxazol-2-yl)ethoxy)-2,6-difluorobenzamide]: the MIC fell in the range of 1 to 16 µg/mL (≈ 1.98 to 31.6 µM). `NC(=O)c1c(F)ccc(OC(CO)c2nc(-c3ccc(C(F)(F)F)cc3)sc2Br)c1F` (centres unmarked) [Compound 131, 3-(1-(5-bromo-2-(4-(trifluoromethyl)phenyl)thiazol-4-yl)-2-hydroxyethoxy)-2,6-difluorobenzamide]: the MIC was more than 16 µg/mL. For `Cc1nnc(CCC(Oc2ccc(F)c(C(N)=O)c2F)c2nc(-c3ccc(C(F)(F)F)cc3)c(Br)o2)o1` (centres unmarked) [Compound 97, 3-(1-(5-bromo-4-(4-(trifluoromethyl)phenyl)oxazol-2-yl)-3-(5-methyl-1,3,4-oxadiazol-2-yl)propoxy)-2,6-difluorobenzamide], the MIC was 1 to 16 µg/mL (≈ 1.7 to 27.2 µM). As for `CC(Oc1ccc(F)c(C(N)=O)c1F)c1nc(-c2ccc(Cl)cc2)c(Br)o1` (centres unmarked) [Compound 1], the figure is less than 0.25 µg/mL; as for `Cc1noc(C(Oc2ccc(F)c(C(N)=O)c2F)c2nc(-c3ccc(C(F)(F)F)cc3)co2)n1` (centres unmarked) [Compound 188, 2,6-difluoro-3-((3-methyl-1,2,4-oxadiazol-5-yl)(4-(4-(trifluoromethyl)phenyl)oxazol-2-yl)methoxy)benzamide], more than 16 µg/mL.

For `NC(=O)c1c(F)ccc(OC(CC(=O)O)c2nc(-c3ccc(C(F)(F)F)cc3)c(Br)o2)c1F` (centres unmarked) [Compound 77, 3-(5-bromo-4-(4-(trifluoromethyl)phenyl)oxazol-2-yl)-3-(3-carbamoyl-2,4-difluorophenoxy)propanoic acid], the MIC is more than 16 µg/mL. As for `NCCC(Oc1ccc(F)c(C(N)=O)c1F)c1nc(-c2ccc(C(F)(F)F)cc2)c(Br)o1` (centres unmarked) [Compound 95, 3-(3-amino-1-(5-bromo-4-(4-(trifluoromethyl)phenyl)oxazol-2-yl)propoxy)-2,6-difluorobenzamide], the MIC was more than 16 µg/mL.

As for `CCOc1cc2nc(C(C)Oc3ccc(F)c(C(N)=O)c3F)sc2nc1Br` (centres unmarked) [Compound 25, 3-(1-(5-bromo-6-ethoxythiazolo[5,4-b]pyridin-2-yl)ethoxy)-2,6-difluorobenzamide], the MIC lay within 0.25 to 1 µg/mL (≈ 0.546 to 2.18 µM). For `NC(=O)c1c(F)ccc(OC(CO)c2nc(-c3ccc(Cl)nc3)c(Br)o2)c1F` (centres unmarked) [Compound 241, 3-(1-(5-bromo-4-(6-chloropyridin-3-yl)oxazol-2-yl)-2-hydroxyethoxy)-2,6-difluorobenzamide], the MIC is 1 to 16 µg/mL (≈ 2.11 to 33.7 µM). Take `CS(=O)(=O)OCC(Oc1ccc(F)c(C(N)=O)c1F)c1nc(-c2ccc(Cl)cc2)c(Cl)o1` (centres unmarked) [Compound 48, 2-(3-carbamoyl-2,4-difluorophenoxy)-2-(5-chloro-4-(4-chlorophenyl)oxazol-2-yl)ethyl methanesulfonate]: the MIC lay in the range of 1 to 16 µg/mL. Under `NC(=O)c1c(F)ccc(OC(CNC(=O)OCc2ccccc2)c2nc(-c3ccc(C(F)(F)F)cc3)c(Br)o2)c1F` (centres unmarked) [Compound 280, benzyl (2-(5-bromo-4-(4-(trifluoromethyl)phenyl)oxazol-2-yl)-2-(3-carbamoyl-2,4-difluorophenoxy)ethyl)carbamate] stands 0.25 to 1 µg/mL (≈ 0.39 to 1.56 µM). Turning to `NC(=O)c1c(F)ccc(OC(CO)c2nc(-c3ccc(Cl)c(F)c3)c(Br)o2)c1F` (centres unmarked) [Compound 225, 3-(1-(5-bromo-4-(4-chloro-3-fluorophenyl)oxazol-2-yl)-2-hydroxyethoxy)-2,6-difluorobenzamide], the MIC was 0.25 to 1 µg/mL (≈ 0.508 to 2.03 µM). On to `CCCc1nc(C(CO)Oc2ccc(F)c(C(N)=O)c2F)oc1Br` (centres unmarked) [Compound 221, 3-(1-(5-bromo-4-propyloxazol-2-yl)-2-hydroxyethoxy)-2,6-difluorobenzamide], for which the MIC was in the range of 1 to 16 µg/mL (≈ 2.47 to 39.5 µM). For the compound `NC(=O)c1c(F)ccc(OC(COC2CCCCO2)c2nc(-c3ccc(C(F)(F)F)cc3)c(Br)o2)c1F` (centres unmarked) [Compound 105, 3-(1-(5-bromo-4-(4-(trifluoromethyl)phenyl)oxazol-2-yl)-2-((tetrahydro-2H-pyran-2-yl)oxy)ethoxy)-2,6-difluorobenzamide], the MIC fell in the range of 0.25 to 1 µg/mL (≈ 0.423 to 1.69 µM). Regarding `NC(=O)c1c(F)ccc(OC(COC(=O)CCC(=O)O)c2nc(-c3ccc(F)cc3F)c(Br)o2)c1F` (centres unmarked) [Compound 263, 4-(2-(5-bromo-4-(2,4-difluorophenyl)oxazol-2-yl)-2-(3 carbamoyl-2,4-difluorophenoxy)ethoxy)-4-oxobutanoic acid], the MIC lay within 1 to 16 µg/mL (≈ 1.74 to 27.8 µM). For `NC(=O)c1c(F)ccc(O[C@H](CO)c2nc(-c3ccc4occc4c3)c(Br)o2)c1F` [Compound 254B, (R)-3-(1-(4-(benzofuran-5-yl)-5-bromooxazol-2-yl)-2-hydroxyethoxy)-2,6-difluorobenzamide], the MIC lay within 1 to 16 µg/mL (≈ 2.09 to 33.4 µM). As to `NC(=O)c1c(F)ccc(OC(COC(=O)NCc2ccncc2)c2nc(-c3ccc(C(F)(F)F)cc3)c(Br)o2)c1F` (centres unmarked) [Compound 167, 2-(5-bromo-4-(4-(trifluoromethyl)phenyl)oxazol-2-yl)-2-(3-carbamoyl-2,4-difluorophenoxy)ethyl (pyridin-4-ylmethyl)carbamate], the MIC was less than 0.25 µg/mL. `CSc1ccc(OC(CO)c2nc(-c3ccc(C(F)(F)F)cc3)c(SC)o2)c(F)c1C(N)=O` (centres unmarked) [Compound 270, 2-fluoro-3-(2-hydroxy-1-(5-(methylthio)-4-(4-(trifluoromethyl)phenyl)oxazol-2-yl)ethoxy)-6-(methylthio)benzamide]: the MIC is more than 16 µg/mL. Turning to `CC(Oc1ccc(F)c(C(N)=O)c1F)c1nc(-c2ccc(Cl)cc2)co1` (centres unmarked) [Compound 4], the MIC lay within 1 to 16 µg/mL (≈ 2.64 to 42.2 µM).
